Laboratory results: patent publication EP4653008A1, “TRADITIONAL CHINESE MEDICINE COMPOSITION HAVING EFFICACY IN TREATING COLDS AND USE THEREOF” (Shijiazhuang Yiling Pharmaceutical Co., Ltd., priority 2023, dated 2024)
Converted amounts (≈) assume the structure as drawn.

How the values were obtained:
[1] = tested on: respiratory syncytial virus (RSV); assay: in vitro antiviral assay (CPE, CCK-8); format: cell-based; conditions: human respiratory syncytial virus, HEp-2 host cells, 100 TCID50, n=4
[2] = tested on: parainfluenza virus (PIV); assay: in vitro antiviral assay (CPE, CCK-8); format: cell-based; conditions: LLC-MK2 host cells, 100 TCID50, n=4
H1HeLa = assay: cells; format: cell-based; conditions: Homo sapiens, H1-HeLa, 72 h, n=3
Vero = assay: in vitro cytotoxicity (CCK-8); format: cell-based, African green monkey; conditions: Chlorocebus sabaeus; Vero cells; 72 h; n=3
enterovirus (EV71) = assay: in vitro antiviral assay (CPE, CCK-8); format: cell-based; conditions: LLC-MK2 host cells, 100 TCID50, n=4
Procedure: • (1) Test Grouping: Concentrations were set up based on the comprehensive results of cytotoxicity assays and OD450nm, values, and literature reports on the antiviral effects of positive control drugs. The concentration without significant toxic effects on cells under microscopic observation was selected as the starting concentration for the in vitro antiviral test. […] All of them were diluted into 5 concentrations, with 4 replicate wells set up for each concentration. A virus titer of 100 TCID50 was used to infect the cells. The grouping was as follows: virus + drug group, in which the drug group included the test substance group and the positive control drug group; the virus control group (with virus and no drug), and the cell control group (with virus maintenance solution only). See Table 3 below for detail. • (2) Cell Plating: Cells were prepared into a single cell suspension (1×10^4 cells/mL), seeded into a 96-well cell culture plate at 100 µL per well, and incubated overnight in a 37°C, 5% CO2 incubator. • (3) Addition of Drug and Observation: The medium was discarded, and the cells were washed twice with 1×PBS. […] The OD450nm value of the cells was read using a microplate reader. The inhibition rates of virus by different concentrations of the test substance and their median effective concentration (EC50) against virus were calculated as follows. […]

Coxsackievirus B3 (CVB3) = assay: in vitro antiviral assay (CPE, CCK-8); format: cell-based; conditions: Enterovirus B, LLC-MK2
rhinovirus (Rhv) = assay: in vitro antiviral assay (CPE, CCK-8); format: cell-based; conditions: Enterovirus, H1-HeLa
rotavirus (RV) = assay: in vitro antiviral assay (CPE, CCK-8); format: cell-based; conditions: Vero
LLC-MK2 = assay: in vitro cytotoxicity (CCK-8); format: cell-based, monkey; conditions: Primates; LLC-MK2 cells; 72 h; n=3
HEp-2 = assay: in vitro cytotoxicity (CCK-8); format: cell-based; conditions: Homo sapiens; HEp-2 cells; 72 h; n=3
SD rats = assay: fever in rats induced by intraperitoneal injection of LPS; format: in vivo; conditions: 3h after LPS, 26.64 mg/kg
ICR mice = assay: ear-swelling in mice caused by xylene; format: in vivo; conditions: 0.50g/kg
Procedure: Referring to the specification and literature documents, the dose of aspirin drug administered to mice was set at 0.50 g/kg, as shown in Table 25.
A disposable syringe was used to administer the drug at a dosing volume of 10 ml/kg. Animals in the model group were administered with a corresponding volume of the solvent. The administration was carried out for 5 days.
After receiving new experimental animals, they were numbered and subjected to an adaptive feeding for at least 5 days. The grouping was carried out as described previously. 0.5 h after the last administration, the animal was fixed, and the right ear was exposed. The xylene was applied to the middle area of the right ear of the mice by dropwise addition using a pipette, with each 15 µL of xylene applied to dorsal and ventral sides and spread evenly. The left ear was left untreated. After 40 min, the animal was sacrificed by cervical dislocation. Both ears were then cut along the base of the auricle. A punch (7 mm diameter) was used to obtain symmetrical ear tissues from both ears, which were weighed on a precision analytical balance. The weights were recorded, and the degree of swelling and the swelling inhibition rate were calculated. Swelling degree = weight of the right ear tissue - weight of the left ear tissue [formula] [formula]

NC(=O)c1ncn([C@@H]2O[C@H](CO)[C@@H](O)[C@H]2O)n1 [Ribavirin]
EC50 [1]: > 10 µg/mL
EC50 [2]: 20.9 µg/mL (≈ 85.7 µM)
IC50 (H1HeLa): > 1000 µg/mL
IC50 (Vero): > 1000 µg/mL
EC50 (enterovirus (EV71)): 6.03 µg/mL (≈ 24.7 µM)
EC50 (Coxsackievirus B3 (CVB3)): 102 µg/mL (≈ 417 µM)
EC50 (rhinovirus (Rhv)): > 30 µg/mL
EC50 (rotavirus (RV)): 20.6 µg/mL (≈ 84.5 µM)
IC50 (LLC-MK2): > 1000 µg/mL
IC50 (HEp-2): > 1000 µg/mL

CC(C)Cc1ccc(C(C)C(=O)O)cc1 (stereo not shown) [Ibuprofen]
ΔT (ΔT =Tx-T0) °C (SD rats): 0.28 ± 0.48 °C

CC(=O)Oc1ccccc1C(=O)O [Aspirin, aspirin]
Swelling degree (ICR mice): 5.53 ± 2.81 mg
Swelling inhibition rate (%) (ICR mice): 50.34%
